Source: ChEMBL document CHEMBL1201862, “PubChem BioAssay data set” (2004)
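Assay format: 96-well plates, 48-hour exposure. At the GI50, growth is halved.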 Active and inactive are the calls of the source. Cut-off read from the data, not from the text of the source: active = GI50 up to about 1.1 µM and inactive = higher.

Key:
Test in all cases: DTP human tumour cell line panel, 48 h
[1] = tested on: NCI-H522
[2] = tested on: SK-MEL-2
[3] = tested on: SK-OV-3
[4] = tested on: LOX IMVI
[5] = tested on: SF-295
[6] = tested on: A549
[7] = tested on: HCT-116
[8] = tested on: COLO 205
[9] = tested on: CAKI-1
[10] = tested on: RPMI-8226
[11] = tested on: Malme-3M
[12] = tested on: SN12C
[13] = tested on: EKVX
[14] = tested on: HT-29
[15] = tested on: U-251
[16] = tested on: UACC-257
[17] = tested on: UACC-62
[18] = tested on: SNB-19
[19] = tested on: SR

Measured: GI50

COC(=O)c1c(-c2ccccc2)cc2c3cc(-c4ccccc4)c(C(=O)OC)n3c3ccccc3n12
inactive: [1] > 91 µM | [2] > 100 µM | [3] > 100 µM | [4] > 100 µM | [5] > 100 µM | [6] > 100 µM | [7] > 100 µM | [8] > 100 µM | [9] > 100 µM | [10] > 100 µM | [11] > 100 µM | [12] > 100 µM | [13] > 100 µM | [14] > 100 µM | [15] > 100 µM | [16] > 100 µM | [17] > 100 µM | [18] > 100 µM

C/C(=N\NC(=O)C(N)=O)c1c(O)cc(C)oc1=O
inactive: [2] > 100 µM | [19] > 100 µM | [3] > 100 µM | [4] > 100 µM | [5] > 100 µM | [6] > 100 µM | [7] > 100 µM | [11] > 100 µM | [12] > 100 µM | [13] > 100 µM | [14] > 100 µM | [15] > 100 µM | [16] > 100 µM | [17] > 100 µM | [18] > 100 µM

CN1CCCC2[C@@H]3CCC4c5nonc5CC[C@]4(C)C3CC[C@@]21C (some centres undefined)
inactive: [1] > 100 µM | [2] > 100 µM | [19] > 100 µM | [3] 17.9 µM | [5] 43.2 µM | [6] > 100 µM | [7] > 100 µM | [8] > 100 µM | [9] > 100 µM | [10] > 100 µM | [11] > 100 µM | [12] 98.6 µM | [13] > 100 µM | [14] 38.1 µM | [15] > 100 µM | [16] 35 µM | [17] 24.7 µM | [18] > 100 µM

Cc1ccc(S(=O)(=O)NC(C(=O)O)C(C)C)cc1 (centres undefined)
inactive: [1] > 100 µM | [2] > 100 µM | [19] > 100 µM | [4] > 100 µM | [5] > 100 µM | [6] > 100 µM | [7] > 100 µM | [9] > 100 µM | [11] > 100 µM | [12] > 100 µM | [13] > 100 µM | [14] > 100 µM | [15] > 100 µM | [16] > 100 µM | [17] > 100 µM | [18] > 100 µM

CC1CCC2(CC1)NN=c1s/c(=C\c3ccc(O)cc3)c(=O)n1N2 (centres undefined)
inactive: [1] > 100 µM | [3] > 100 µM | [4] 81.8 µM | [5] > 100 µM | [6] > 100 µM | [7] > 100 µM | [8] > 100 µM | [10] > 100 µM | [12] > 100 µM | [13] > 100 µM | [14] > 100 µM | [15] > 100 µM | [17] > 100 µM | [18] > 100 µM

CCOC(=O)NC(=O)c1cn(CCCCCCOC(=O)NCCCCCCNC(=O)OCCCCCCn2cc(C(=O)NC(=O)OCC)c(=O)[nH]c2=O)c(=O)[nH]c1=O
inactive: [1] > 100 µM | [2] > 100 µM | [3] > 100 µM | [4] > 100 µM | [5] > 100 µM | [6] > 100 µM | [7] > 100 µM | [8] > 100 µM | [9] > 100 µM | [10] > 100 µM | [11] > 100 µM | [12] > 100 µM | [13] > 100 µM | [14] > 100 µM | [15] > 100 µM | [16] > 100 µM | [17] > 100 µM | [18] > 100 µM
